Patent US20240368174A1, “Antiviral Heterocyclic Compounds” (Enanta Pharmaceuticals, Inc., priority 2023, published 2024)

What follows are compounds tested on HMPV clinical isolate A2 strain TN 94-49 (assay: HMPV antiviral assay, Method 2 (LLC-MK2 cells with CP-100-356, ATP-Lite)). Conditions: human metapneumovirus, 168 h; hMPV A2 TN/94-49, LLC-MK2 cells with 4 μM CP-100-356, 7 days, ATP-Lite.
Assay type: cell-based
Outline: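 LLC-MK2 rhesus kidney cells (5,000/well) infected in suspension with HMPV A2 TN 94-49 at MOI 0.16, in serum-free medium with final 2 μg/mL TPCK-trypsin and 2 μM CP-100-356. Compounds tested in duplicate from 200 nM, 2.5-fold, 10 points; 7 days at 37 °C. Cell health by ATP-Lite luminescence; EC50 by four-parameter fit.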

Compound	EC50 [nM]
COc1cc(C(=O)NC[C@](O)(c2cc3c(c(-c4cc(C(F)(F)F)ncc4F)n2)OC[C@]3(C)C(N)=O)C2(F)CC2)cc2cn(C(F)F)nc12 [Example 667]	< 200
COc1cc(C(=O)NC[C@](O)(c2cc3c(c(-c4cc(C(F)(F)F)ncc4F)n2)OC[C@]3(C)C(N)=O)C2(F)CC2)cn2cc(C3CC3)nc12 [Example 668]	< 200
COc1cc(C(=O)NC[C@](O)(c2cc3c(c(-c4cc(C(F)(F)F)ncc4F)n2)OC[C@]3(C)C(N)=O)C2(F)CC2)cc2cc(C3CC3)nn12 [Example 669]	< 200
COc1cc(C(=O)NC[C@@](O)(c2ccccc2)c2cc3c(c(-c4ccnc(C)c4Cl)n2)OC[C@]3(C)C(N)=O)cc2cn(C3CC3)nc12 [Example 692]	< 200
COc1cc(C(=O)NC[C@@](O)(c2ccccc2)c2cc3c(c(-c4ccnc(C)c4Cl)n2)OC[C@]3(C)C(N)=O)cc2oc(C3CC3)nc12 [Example 695]	< 200
COc1nccc(-c2nc([C@@](O)(CNC(=O)c3cc(OC)c4nn(C(F)F)cc4c3)c3ccc(F)cc3)cc3c2OC[C@]3(C)C(N)=O)c1Cl [Example 698]	< 200
COc1nccc(-c2nc([C@@](O)(CNC(=O)c3cc(OC)c4nc(C5CC5)oc4c3)c3ccc(F)cc3)cc3c2OC[C@]3(C)C(N)=O)c1Cl [Example 699]	< 200
COc1cc(C(=O)NC[C@](O)(c2cc3c(c(-n4cc5cc(F)ccc5n4)n2)OC[C@]3(C)C(N)=O)C2CC2)cc2cn(C3CC3)nc12 [Example 719]	> 200
COc1cc(C(=O)NC[C@](O)(c2cc3c(c(-c4ccnc5ccccc45)n2)OC[C@]3(C)C(N)=O)C2CC2)cc2cn(C3CC3)nc12 [Example 727]	< 200
COc1cc(C(=O)NC[C@](O)(c2cc3c(c(-c4ccnc5[nH]ccc45)n2)OC[C@]3(C)C(N)=O)C2CC2)cc2cn(C3CC3)nc12 [Example 728]	> 200
COc1cc(C(=O)NC[C@](O)(c2cc3c(c(-c4ccnc(C(F)(F)F)c4)n2)OC[C@]3(C)C(N)=O)C2CC2)cc2cn(C(F)F)nc12 [Example 759]	> 200
COc1nccc(-c2nc([C@@](O)(CNC(=O)c3cc(OC)c4nn(C5CC5)cc4c3)C3CC3)cc3c2OC[C@]3(C)C(N)=O)c1Cl [Example 782]	< 200
COc1cc(C(=O)NC[C@](O)(c2cc3c(c(-c4ccnc(C(F)(F)F)c4Cl)n2)OC[C@]3(C)C(N)=O)C(F)(F)F)cc2cn(C(F)F)nc12 [Example 790]	< 200
COc1cc(C(=O)NC[C@](O)(c2cc3c(c(-c4ccnc(C(F)F)c4Cl)n2)OC[C@]3(C)C(N)=O)C(F)(F)F)cc2cn(C(F)F)nc12 [Example 797]	< 200
COc1cc(C(=O)NC[C@](O)(c2cc3c(c(-c4ccnc(C(F)(F)F)c4F)n2)OC[C@]3(C)C(N)=O)C2CC2)cc2cn(C(F)F)nc12 [Example 799]	< 200
COc1nccc(-c2nc([C@@](O)(CNC(=O)c3cc(OC)c4nn(C5CC5)cc4c3)C3CC3)cc3c2OC[C@]3(C)C(N)=O)c1F [Example 802]	< 200
COc1cc(C(=O)NC[C@](O)(c2cc3c(c(-c4ccnc(N5CCOCC5)c4Cl)n2)OC[C@]3(C)C(N)=O)C2CC2)cc2cn(C3CC3)nc12 [Example 805]	> 200
CCc1nccc(-c2nc([C@@](O)(CNC(=O)c3cc(OC)c4nn(C5CC5)cc4c3)C3CC3)cc3c2OC[C@]3(C)C(N)=O)c1Cl [Example 807]	< 200
COc1cc(C(=O)NC[C@](O)(c2cc3c(c(-c4ccnc(N(C)C)c4Cl)n2)OC[C@]3(C)C(N)=O)C2CC2)cc2cn(C3CC3)nc12 [Example 811]	< 200
COc1nccc(-c2nc([C@@](O)(CNC(=O)c3cc(OC)c4nn(C5CC5)cc4c3)C3CC3)cc3c2OC[C@]3(C)C(N)=O)c1OC [Example 813]	> 200
COc1cc(C(=O)NC[C@](O)(c2cc3c(c(-c4ccnc(C)c4F)n2)OC[C@]3(C)C(N)=O)C2CC2)cc2cn(C3CC3)nc12 [Example 817]	< 200
COc1cc(-c2nc([C@@](O)(CNC(=O)c3cc(OC)c4nn(C5CC5)cc4c3)C(F)(F)F)cc3c2OC[C@]3(C)C(N)=O)c(F)cn1 [Example 831]	> 200
COc1cc(-c2nc([C@@](O)(CNC(=O)c3cc(OC)c4nn(C5CC5)cc4c3)C3CC3)cc3c2OC[C@]3(C)C(N)=O)ccn1 [Example 832]	> 200
COc1cc(-c2nc([C@@](O)(CNC(=O)c3cc(OC)c4nn(C5CC5)cc4c3)C3CC3)cc3c2OC[C@]3(C)C(N)=O)c(Cl)cn1 [Example 834]	> 200

Now from value to compound:

EC50 [nM]	Compound
< 200	COc1cc(C(=O)NC[C@@](O)(c2ccccc2)c2cc3c(c(-c4ccnc(F)c4Cl)n2)OC[C@]3(C)C(N)=O)cn2cc(C3CC3)nc12 [Example 664]
< 200	COc1cc(C(=O)NC[C@](O)(c2cc3c(c(-c4cc(C(F)(F)F)ncc4F)n2)OC[C@]3(C)C(N)=O)C2(F)CC2)cc2cn(C3CC3)nc12 [Example 665]
< 200	COc1cc(C(=O)NC[C@](O)(c2cc3c(c(-c4cc(C(F)(F)F)ncc4F)n2)OC[C@]3(C)C(N)=O)C2(F)CC2)cc2cn(C3(F)CC3)nc12 [Example 666]
< 200	COc1cc(C(=O)NC[C@](O)(c2cc3c(c(-n4ccc5c(F)cccc54)n2)OC[C@]3(C)C(N)=O)C(F)(F)F)cc2sc(N)nc12 [Example 691]
< 200	COc1cc(C(=O)NC[C@@](O)(c2ccccc2)c2cc3c(c(-c4ccnc(C)c4Cl)n2)OC[C@]3(C)C(N)=O)cc2cn(C3(F)CC3)nc12 [Example 693]
< 200	COc1cc(C(=O)NC[C@@](O)(c2ccccc2)c2cc3c(c(-c4ccnc(C)c4Cl)n2)OC[C@]3(C)C(N)=O)cc2cn(C(F)F)nc12 [Example 694]
< 200	COc1nccc(-c2nc([C@@](O)(CNC(=O)c3cc(OC)c4nn(C5CC5)cc4c3)c3ccc(F)cc3)cc3c2OC[C@]3(C)C(N)=O)c1Cl [Example 696]
< 200	COc1nccc(-c2nc([C@@](O)(CNC(=O)c3cc(OC)c4nn(C5(F)CC5)cc4c3)c3ccc(F)cc3)cc3c2OC[C@]3(C)C(N)=O)c1Cl [Example 697]
< 200	COc1cc(C(=O)NC[C@@](O)(c2cccc(F)c2)c2cc3c(c(-c4ccnc(C)c4Cl)n2)OC[C@]3(C)C(N)=O)cc2cc(Cl)c(C)nc12 [Example 700]
< 200	COc1cc(C(=O)NC[C@](O)(c2cc3c(c(-c4cc(C5CC5)ncc4F)n2)OC[C@]3(C)C(N)=O)C2CC2)cc2cn(C3CC3)nc12 [Example 723]
< 200	COc1cc(C(=O)NC[C@](O)(c2cc3c(c(-c4c(F)cncc4Cl)n2)OC[C@]3(C)C(N)=O)C2CC2)cc2cn(C3CC3)nc12 [Example 724]
< 200	COc1cc(C(=O)NC[C@](O)(c2cc3c(c(-c4c(C)cncc4F)n2)OC[C@]3(C)C(N)=O)C2CC2)cc2cn(C3CC3)nc12 [Example 725]
< 200	COc1cc(C(=O)NC[C@](O)(c2cc3c(c(-c4c(C)cncc4C)n2)OC[C@]3(C)C(N)=O)C2CC2)cc2cn(C3CC3)nc12 [Example 726]
< 200	COc1cc(C(=O)NC[C@](O)(c2cc3c(c(-c4c(F)cncc4F)n2)OC[C@]3(C)C(N)=O)C2CC2)cc2cn(C3CC3)nc12 [Example 729]
< 200	COc1cc(C(=O)NC[C@](O)(c2cc3c(c(-c4ccnc(C(F)(F)F)c4)n2)OC[C@]3(C)C(N)=O)C2CC2)cc2cn(C3(F)CC3)nc12 [Example 761]
< 200	COc1cc(C(=O)NC[C@](O)(c2cc3c(c(-c4ccnc(C(F)(F)F)c4)n2)OC[C@]3(C)C(N)=O)C2CC2)cc2oc(C3CC3)nc12 [Example 763]
< 200	COc1nccc(-c2nc([C@@](O)(CNC(=O)c3cc(OC)c4nn(C(F)F)cc4c3)C(F)(F)F)cc3c2OC[C@]3(C)C(N)=O)c1Cl [Example 798]
< 200	COc1cc(C(=O)NC[C@](O)(c2cc3c(c(-c4ccnc(C(F)F)c4F)n2)OC[C@]3(C)C(N)=O)C2CC2)cc2cn(C3CC3)nc12 [Example 803]
> 200	COc1cc(C(=O)NC[C@](O)(c2cc3c(c(-c4ccnc(OCC(C)C)c4Cl)n2)OC[C@]3(C)C(N)=O)C2CC2)cc2cn(C3CC3)nc12 [Example 804]
> 200	COc1cc(C(=O)NC[C@](O)(c2cc3c(c(-c4ccnc(OC(C)C)c4Cl)n2)OC[C@]3(C)C(N)=O)C2CC2)cc2cn(C3CC3)nc12 [Example 806]
> 200	COc1cc(C(=O)NC[C@](O)(c2cc3c(c(-c4cccc(C(=O)O)c4Cl)n2)OC[C@]3(C)C(N)=O)C2CC2)cc2cn(C3CC3)nc12 [Example 808]
> 200	COc1cc(C(=O)NC[C@](O)(c2cc3c(c(-c4cccc(C(=O)N(C)C)c4Cl)n2)OC[C@]3(C)C(N)=O)C2CC2)cc2cn(C3CC3)nc12 [Example 809]
< 200	COc1cc(C(=O)NC[C@](O)(c2cc3c(c(-c4ccnc(C(C)C)c4Cl)n2)OC[C@]3(C)C(N)=O)C2CC2)cc2cn(C3CC3)nc12 [Example 810]
> 200	COc1cc(C(=O)NC[C@](O)(c2cc3c(c(-c4ccnc5c4OCCO5)n2)OC[C@]3(C)C(N)=O)C2CC2)cc2cn(C3CC3)nc12 [Example 812]
< 200	COc1cc(C(=O)NC[C@](O)(c2cc3c(c(-c4ccnc(Cl)c4C)n2)OC[C@]3(C)C(N)=O)C2CC2)cc2cn(C3CC3)nc12 [Example 815]
> 200	COc1cccc2c1cnn2-c1nc([C@@](O)(CNC(=O)c2cc(OC)c3nn(C4CC4)cc3c2)C2CC2)cc2c1OC[C@]2(C)C(N)=O [Example 833]
> 200	COc1cc(-c2nc([C@@](O)(CNC(=O)c3cc(OC)c4nn(C5CC5)cc4c3)C(F)(F)F)cc3c2OC[C@]3(C)C(N)=O)c(Cl)cn1 [Example 835]
> 200	COc1cc(C(=O)NC[C@](O)(c2cc3c(c(-n4ncc5c(F)cccc54)n2)OC[C@]3(C)C(N)=O)C(F)(F)F)cc2oc(C3CC3)nc12 [Example 836]
> 200	COc1cc(C(=O)NC[C@](O)(c2cc3c(c(-c4ccn5nc(C)cc5c4Cl)n2)OC[C@]3(C)C(N)=O)C2CC2)cc2cn(C3CC3)nc12 [Example 837]
